Assay results reported in US7429660B2, “ATM inhibitors” (Kudos Pharmaceuticals Limited, priority 2003, dated 2008).

Biological target: T1, ATM protein immunoprecipitated from HeLa cell nuclear extract (Homo sapiens, UniProt Q13315)
T1 construct: ATM protein was immunoprecipitated from HeLa cell nuclear extract; endogenous in cells; host or cells: HeLa cell nuclear extract (immunoprecipitated with rabbit polyclonal anti-ATM antiserum)
Assay: In vitro ATM inhibition assay (phosphorylation of GSTp53N66 on serine 15, chemiluminescent detection); further: tested normally from 100 µM down to 0.1 nM
Type: biochemical
Details: read-out: IC50 values (the concentration at which 50% of the enzyme activity is inhibited), ATM inhibition
In short: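 Immunoprecipitated HeLa nuclear ATM (C-terminal anti-sera) with GSTp53N66 substrate in Hepes pH 7.4 buffer with MgCl2/MnCl2; inhibitor preincubated 10 min at 37 °C, then Na-ATP added, 1 h at 37 °C.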

T1 sequence (Q13315 whole entry): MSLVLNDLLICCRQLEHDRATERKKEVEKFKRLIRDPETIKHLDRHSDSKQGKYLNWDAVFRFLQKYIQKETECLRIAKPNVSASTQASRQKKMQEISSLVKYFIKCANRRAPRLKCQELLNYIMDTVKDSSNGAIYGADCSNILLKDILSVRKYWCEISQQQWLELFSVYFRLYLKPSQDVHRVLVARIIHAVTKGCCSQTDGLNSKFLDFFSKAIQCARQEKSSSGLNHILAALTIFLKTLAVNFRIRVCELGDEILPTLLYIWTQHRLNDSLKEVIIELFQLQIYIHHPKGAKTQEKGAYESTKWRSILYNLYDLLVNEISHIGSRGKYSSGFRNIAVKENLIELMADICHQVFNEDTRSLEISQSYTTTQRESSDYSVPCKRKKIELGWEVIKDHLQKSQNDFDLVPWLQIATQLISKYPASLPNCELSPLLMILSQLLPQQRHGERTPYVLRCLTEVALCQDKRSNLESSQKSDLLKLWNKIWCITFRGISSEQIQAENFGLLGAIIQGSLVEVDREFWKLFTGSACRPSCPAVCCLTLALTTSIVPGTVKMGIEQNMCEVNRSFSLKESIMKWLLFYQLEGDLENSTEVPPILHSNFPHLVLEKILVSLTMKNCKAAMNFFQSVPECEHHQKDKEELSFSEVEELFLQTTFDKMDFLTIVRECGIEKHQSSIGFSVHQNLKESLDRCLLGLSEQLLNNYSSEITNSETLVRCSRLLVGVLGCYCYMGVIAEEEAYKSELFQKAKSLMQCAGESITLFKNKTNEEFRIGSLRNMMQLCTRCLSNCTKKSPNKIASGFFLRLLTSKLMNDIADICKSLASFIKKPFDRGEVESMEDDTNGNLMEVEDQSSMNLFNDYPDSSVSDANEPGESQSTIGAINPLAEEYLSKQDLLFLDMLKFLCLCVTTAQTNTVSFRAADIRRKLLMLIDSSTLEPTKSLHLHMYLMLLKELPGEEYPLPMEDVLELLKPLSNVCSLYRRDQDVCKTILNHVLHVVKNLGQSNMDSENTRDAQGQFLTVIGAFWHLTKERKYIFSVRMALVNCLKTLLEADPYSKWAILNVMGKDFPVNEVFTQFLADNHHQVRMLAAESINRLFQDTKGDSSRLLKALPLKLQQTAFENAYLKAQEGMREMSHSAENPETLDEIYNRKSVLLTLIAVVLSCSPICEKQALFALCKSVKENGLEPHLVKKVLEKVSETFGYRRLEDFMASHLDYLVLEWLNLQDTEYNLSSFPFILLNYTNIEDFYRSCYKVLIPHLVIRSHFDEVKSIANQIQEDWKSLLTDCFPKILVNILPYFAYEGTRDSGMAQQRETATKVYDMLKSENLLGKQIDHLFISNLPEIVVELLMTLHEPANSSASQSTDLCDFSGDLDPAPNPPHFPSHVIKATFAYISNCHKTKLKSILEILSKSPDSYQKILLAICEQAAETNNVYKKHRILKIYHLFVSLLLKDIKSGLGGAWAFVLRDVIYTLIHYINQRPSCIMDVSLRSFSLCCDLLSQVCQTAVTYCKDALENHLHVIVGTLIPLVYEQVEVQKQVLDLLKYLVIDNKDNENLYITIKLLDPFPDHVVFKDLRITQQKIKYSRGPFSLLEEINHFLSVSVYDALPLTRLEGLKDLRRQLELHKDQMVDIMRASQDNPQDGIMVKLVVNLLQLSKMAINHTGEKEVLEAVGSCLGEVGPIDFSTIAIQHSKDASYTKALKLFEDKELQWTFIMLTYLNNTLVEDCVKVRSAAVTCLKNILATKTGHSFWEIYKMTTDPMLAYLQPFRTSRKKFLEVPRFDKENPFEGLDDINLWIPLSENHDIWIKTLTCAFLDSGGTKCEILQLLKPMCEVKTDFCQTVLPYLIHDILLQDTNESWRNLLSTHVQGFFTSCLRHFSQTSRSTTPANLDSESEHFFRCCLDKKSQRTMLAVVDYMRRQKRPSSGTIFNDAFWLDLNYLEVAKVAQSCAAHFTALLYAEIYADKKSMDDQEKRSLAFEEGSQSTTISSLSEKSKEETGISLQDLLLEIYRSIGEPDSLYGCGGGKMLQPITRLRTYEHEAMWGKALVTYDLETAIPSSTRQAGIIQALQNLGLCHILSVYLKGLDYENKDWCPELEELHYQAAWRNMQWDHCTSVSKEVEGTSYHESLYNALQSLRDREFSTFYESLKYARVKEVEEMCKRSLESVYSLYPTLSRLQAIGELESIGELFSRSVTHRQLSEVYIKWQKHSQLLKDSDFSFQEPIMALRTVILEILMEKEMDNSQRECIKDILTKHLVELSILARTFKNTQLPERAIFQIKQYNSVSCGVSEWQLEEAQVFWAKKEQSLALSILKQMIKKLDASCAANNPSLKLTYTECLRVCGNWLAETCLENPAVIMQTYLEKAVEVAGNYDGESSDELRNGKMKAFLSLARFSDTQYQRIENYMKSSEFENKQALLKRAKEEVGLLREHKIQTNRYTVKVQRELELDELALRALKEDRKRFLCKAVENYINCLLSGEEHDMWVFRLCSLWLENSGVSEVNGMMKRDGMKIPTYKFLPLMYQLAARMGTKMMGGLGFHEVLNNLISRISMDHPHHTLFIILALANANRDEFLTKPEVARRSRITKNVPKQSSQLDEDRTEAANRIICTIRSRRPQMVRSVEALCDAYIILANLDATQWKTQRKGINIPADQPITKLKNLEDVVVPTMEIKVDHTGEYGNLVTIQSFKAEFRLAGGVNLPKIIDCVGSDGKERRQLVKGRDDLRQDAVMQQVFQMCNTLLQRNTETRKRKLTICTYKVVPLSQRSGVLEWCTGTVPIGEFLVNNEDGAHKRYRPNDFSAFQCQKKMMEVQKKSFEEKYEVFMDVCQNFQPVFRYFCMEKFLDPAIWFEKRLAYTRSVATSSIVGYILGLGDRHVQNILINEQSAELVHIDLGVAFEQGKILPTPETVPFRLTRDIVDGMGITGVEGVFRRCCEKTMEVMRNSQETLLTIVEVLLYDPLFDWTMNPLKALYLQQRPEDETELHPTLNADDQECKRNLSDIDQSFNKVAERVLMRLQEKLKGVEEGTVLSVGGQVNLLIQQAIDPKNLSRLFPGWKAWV

| Compound | IC50 |
| --- | --- |
| O=c1cc(-c2cccc3c2Sc2ccc(S(=O)(=O)N(CCO)CCO)cc2C3)oc(N2CCOCC2)c1 [Compound 490] | < 200 nM |
| O=C(COc1ccc2c(c1)Cc1cccc(-c3cc(=O)cc(N4CCOCC4)o3)c1S2)N1CCOCC1 [Compound 494] | < 200 nM |
| O=C(COc1ccc2c(c1)Cc1cccc(-c3cc(=O)cc(N4CCOCC4)o3)c1S2)NCC(F)(F)F [Compound 496] | < 200 nM |
| O=C(COc1ccc2c(c1)Cc1cccc(-c3cc(=O)cc(N4CCOCC4)o3)c1S2)NCC1CCCO1 (stereo not shown) [Compound 497] | < 200 nM |
| O=C(COc1ccc2c(c1)Cc1cccc(-c3cc(=O)cc(N4CCOCC4)o3)c1S2)NC1CCC1 [Compound 499] | < 200 nM |
| CSCCNC(=O)COc1ccc2c(c1)Cc1cccc(-c3cc(=O)cc(N4CCOCC4)o3)c1S2 [Compound 500] | < 200 nM |
| O=C(COc1ccc2c(c1)Cc1cccc(-c3cc(=O)cc(N4CCOCC4)o3)c1S2)NC(CO)(CO)CO [Compound 505] | < 200 nM |
| NC(=O)C1CCN(C(=O)COc2ccc3c(c2)Cc2cccc(-c4cc(=O)cc(N5CCOCC5)o4)c2S3)CC1 [Compound 509] | < 200 nM |
| O=C(COc1ccc2c(c1)Cc1cccc(-c3cc(=O)cc(N4CCOCC4)o3)c1S2)N1CCSCC1 [Compound 510] | < 200 nM |
| O=C(COc1ccc2c(c1)Cc1cccc(-c3cc(=O)cc(N4CCOCC4)o3)c1S2)NC[C@@H]1CCCCC[C@@H]1O [Compound 513] | < 200 nM |
| CCN1CCN(C(=O)COc2ccc3c(c2)Cc2cccc(-c4cc(=O)cc(N5CCOCC5)o4)c2S3)CC1 [Compound 524] | < 200 nM |
| O=C(COc1ccc2c(c1)Cc1cccc(-c3cc(=O)cc(N4CCOCC4)o3)c1S2)N1CCNCC1 [Compound 528] | < 200 nM |
| O=C(COc1ccc2c(c1)Cc1cccc(-c3cc(=O)cc(N4CCOCC4)o3)c1S2)N1CCCCCC1 [Compound 532] | < 200 nM |
| CCCNCCOc1ccc2c(c1)Cc1cccc(-c3cc(=O)cc(N4CCOCC4)o3)c1S2 [Compound 537] | < 200 nM |

Other lines, results leading:

| IC50 | Compound |
| --- | --- |
| < 200 nM | O=c1cc(-c2cccc3c2Sc2ccc(S(=O)(=O)NCCc4cnc[nH]4)cc2C3)oc(N2CCOCC2)c1 [Compound 465] |
| < 200 nM | O=c1cc(-c2cccc3c2Sc2ccc(S(=O)(=O)NC(CO)CO)cc2C3)oc(N2CCOCC2)c1 [Compound 466] |
| < 200 nM | O=c1cc(-c2cccc3c2Sc2ccc(S(=O)(=O)N4CCCC4)cc2C3)oc(N2CCOCC2)c1 [Compound 468] |
| < 200 nM | NC(=O)C1CCN(S(=O)(=O)c2ccc3c(c2)Cc2cccc(-c4cc(=O)cc(N5CCOCC5)o4)c2S3)CC1 [Compound 469] |
| < 200 nM | O=c1cc(-c2cccc3c2Sc2ccc(S(=O)(=O)N4CCCC(CO)C4)cc2C3)oc(N2CCOCC2)c1 (stereo not shown) [Compound 471] |
| < 200 nM | O=c1cc(-c2cccc3c2Sc2ccc(S(=O)(=O)Nc4cccnc4)cc2C3)oc(N2CCOCC2)c1 [Compound 472] |
| < 200 nM | CC(=O)N1CCN(S(=O)(=O)c2ccc3c(c2)Cc2cccc(-c4cc(=O)cc(N5CCOCC5)o4)c2S3)CC1 [Compound 476] |
| < 200 nM | C[C@@H]1CN(S(=O)(=O)c2ccc3c(c2)Cc2cccc(-c4cc(=O)cc(N5CCOCC5)o4)c2S3)C[C@H](C)O1 [Compound 478] |
| < 200 nM | CN1CCN(S(=O)(=O)c2ccc3c(c2)Cc2cccc(-c4cc(=O)cc(N5CCOCC5)o4)c2S3)CC1 [Compound 480] |
| < 200 nM | CCN1CCN(S(=O)(=O)c2ccc3c(c2)Cc2cccc(-c4cc(=O)cc(N5CCOCC5)o4)c2S3)CC1 [Compound 482] |
| < 200 nM | O=c1cc(-c2cccc3c2Sc2ccc(S(=O)(=O)NCCO)cc2C3)oc(N2CCOCC2)c1 [Compound 484] |
| < 200 nM | O=c1cc(-c2cccc3c2Sc2ccc(S(=O)(=O)N4CCCCC4)cc2C3)oc(N2CCOCC2)c1 [Compound 485] |
| < 200 nM | CCC(C)(C)NS(=O)(=O)c1ccc2c(c1)Cc1cccc(-c3cc(=O)cc(N4CCOCC4)o3)c1S2 [Compound 488] |
| < 200 nM | O=c1cc(-c2cccc3c2Sc2ccc(S(=O)(=O)N4CCCNCC4)cc2C3)oc(N2CCOCC2)c1 [Compound 489] |
